# Test results as given in patent publication US11149056B2, “C7 substituted oxysterols and methods of use thereof” (Sage Therapeutics, Inc., priority 2016, dated 2021).
# Key:
# NMDA receptor 2B = NMDA receptor 2B (Homo sapiens (Human), UniProt Q05586+Q13224); test: Automated patch-clamp (QPatch HTX), NMDA receptor 2B subtype; assay type: cell-based; settings: for Emax: read-out: AVG_ EMAX 2B %
# Procedure: (§1) Automated Patch-Clamp System (OPatch HTX)
# (§2) In general, cells will be passaged at a confluence of about 80% to […]. For electrophysiological measurements cells will be harvested at a confluence of about 80% to 90% from sterile culture flasks containing culture complete medium. Cells will be transferred as suspension in PBS to the QPatch 16X or QPatch HTX system to; the centrifuge/washer directly. Standard Laboratory Conditions; Cells will be incubated at 37° C. in a humidified atmosphere with 5% CO2 (rel. humidity about 95%). Culture media: The cells will be continuously maintained in and passaged in sterile culture flasks containing a 1:1 mixture of Dulbecco's modified eagle medium and nutrient mixture F-12 (D-MEM/F-12 1×, liquid, with L-Glutamine) supplemented with 10% fetal bovine serum, 1% Penicillin/Streptomycin solution, and 50 μM AP-5 blocker. Antibiotics: The complete medium as indicated above is supplemented with 100 μg/mL hygromycin, 15 μg/mL blasticidin and 1 μg/mL puromycin. Induction of Expression-. 2.5 μg/mL tetracycline is added 24 h before start of experiments. Dose Formulation Dose levels are in terms of test compounds, as supplied. Vehicle will be added to achieve a stock concentration of 10 mM (storage at −10° C. to −30° C.). A further stock solutions of 1.0 mM will be prepared in DMSO. Details of stock solution usage (thawing, dose formulations) will be documented in the raw data. The time period of stock solution usage will be detailed in the report. Test Compound Concentrations Dose levels, are in terms of test compounds, as supplied. Vehicle will be added to achieve a stock concentration of 10 mM (storage at −10° C. to −30° C.). A further stock solutions of 1.0 mM will be prepared in DMSO. Details of stock solution usage (thawing, dose formulations) will be documented in the raw data. The time period of stock solution usage will be detailed in the report. One test concentration of 1.0 μM will be tested. All test solutions will be prepared by diluting the stock solutions with either Mg-free bath solution only or Mg-free bath solution containing NMDA (300 μM) and glycine (8.0 μM) shortly prior to the electrophysiological experiments and kept at room temperature (19° C. to 30° C.) when in use. 0.1% DMSO will be used as vehicle. Frequency of preparation. For each test concentration, fresh solutions of test compounds will be prepared every day. Stability of dose formulation: All preparation times will be documented in the raw data. Any observations regarding instability of test compounds will be mentioned in the raw data. Storage of dose formulation: On the day of experimentation dose formulations will be maintained at room temperature (19° C. to 30° C.) when in use, Bath Solutions For preparing the experiments and for formation of the giga-ohm-seal, the following standard bath solution will be used: Sodium Chloride: 137 mM; Potassium Chloride: 4 mM; Calcium Chloride: 1.8 mM; Magnesium Chloride: 1 mM; HEPES: 10 mM; D-Glucose: 10 mM; Cremophor: 0.02%; pH (NaOH): 7.4
# The 1× intracellular solution will be thawed every day out of a frozen 1× intracellular solution, which has been prepared prior to the experimental start of the present study, aliquoted and stored at −10° C. to −30° C. When in use, the 1× intracellular solution will kept at room temperature (19° C. to 30° C.). Remaining 1× intracellular solution will be stored in the fridge (1° C. to 9° C.). The 1× intracellular solution will include the components outlined below: Potassium Chloride: 130 mM; Magnesium Chloride: 1 mM; Mg-ATP: 5 mM; HEPES: 10 mM; EGTA: 5 mM; pH (KOH): 7.2 Cell Treatment For this study, cells will continuously be perfused with NMDA/Glycine, Test Compound or Test Compound/NMDA/Glycin. In every case, at least 30-second prewash steps with a test compound will be performed in between applications. For details see Table A below. Each experiment type will be analyzed in at least n=3 isolated cells. […]
# [1] = target: glutamate-activated channels of the GRIN1/2A subtype (Homo sapiens (Human), UniProt Q05586+Q12879); test: Automated patch-clamp (QPatch HTX), NMDA receptor GRIN1/2A in HEK 293 cells; assay type: cell-based; settings: HEK 293 cells stably transfected with GRIN1/2A; 300 μM NMDA + 8 μM glycine; holding potential −80 mV; read-out: AVG_ EC50 2A
# Sequence of glutamate-activated channels of the GRIN1/2A subtype (Q12879 23-1464, other chains not shown): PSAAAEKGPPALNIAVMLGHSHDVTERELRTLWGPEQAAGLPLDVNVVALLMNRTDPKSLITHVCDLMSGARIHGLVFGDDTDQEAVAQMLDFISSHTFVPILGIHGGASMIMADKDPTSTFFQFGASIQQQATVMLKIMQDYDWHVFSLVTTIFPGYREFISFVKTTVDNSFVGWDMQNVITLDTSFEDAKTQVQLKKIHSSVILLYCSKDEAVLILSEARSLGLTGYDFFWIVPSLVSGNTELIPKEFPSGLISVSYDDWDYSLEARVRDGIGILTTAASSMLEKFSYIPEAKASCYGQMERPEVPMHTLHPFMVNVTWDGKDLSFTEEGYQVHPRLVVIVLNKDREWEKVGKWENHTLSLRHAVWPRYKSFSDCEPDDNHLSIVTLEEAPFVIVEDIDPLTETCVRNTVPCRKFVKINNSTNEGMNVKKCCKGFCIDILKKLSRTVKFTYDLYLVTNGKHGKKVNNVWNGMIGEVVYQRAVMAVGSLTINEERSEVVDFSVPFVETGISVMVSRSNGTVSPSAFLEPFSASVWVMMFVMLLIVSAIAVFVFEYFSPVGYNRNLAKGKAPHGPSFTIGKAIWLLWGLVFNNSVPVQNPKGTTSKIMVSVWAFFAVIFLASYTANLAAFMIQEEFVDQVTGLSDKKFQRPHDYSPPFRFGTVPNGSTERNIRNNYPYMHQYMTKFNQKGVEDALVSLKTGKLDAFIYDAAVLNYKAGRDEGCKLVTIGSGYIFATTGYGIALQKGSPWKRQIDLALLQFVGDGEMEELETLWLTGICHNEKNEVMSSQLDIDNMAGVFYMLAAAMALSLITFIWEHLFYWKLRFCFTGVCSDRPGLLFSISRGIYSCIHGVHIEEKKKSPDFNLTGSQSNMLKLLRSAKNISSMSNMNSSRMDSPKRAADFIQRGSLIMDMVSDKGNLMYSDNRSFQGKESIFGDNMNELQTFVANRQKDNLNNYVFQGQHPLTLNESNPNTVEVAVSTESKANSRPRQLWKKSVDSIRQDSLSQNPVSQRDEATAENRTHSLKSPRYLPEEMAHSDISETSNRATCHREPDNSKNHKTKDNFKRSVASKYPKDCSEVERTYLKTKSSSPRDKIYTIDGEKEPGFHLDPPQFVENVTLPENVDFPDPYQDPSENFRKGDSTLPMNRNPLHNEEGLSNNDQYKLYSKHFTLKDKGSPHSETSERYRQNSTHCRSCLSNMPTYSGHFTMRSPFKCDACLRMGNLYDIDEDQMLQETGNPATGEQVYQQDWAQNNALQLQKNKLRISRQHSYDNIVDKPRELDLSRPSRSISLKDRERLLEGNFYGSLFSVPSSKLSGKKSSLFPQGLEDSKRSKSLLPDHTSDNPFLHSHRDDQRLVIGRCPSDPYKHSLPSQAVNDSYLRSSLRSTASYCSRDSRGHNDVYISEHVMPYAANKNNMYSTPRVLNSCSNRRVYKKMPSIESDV
# Procedure: as §1
# In this study, HEK 293 cells stably transfected with glutamate-activated channels of the GRIN1/2A subtype will be used together with submaximal NMDA concentrations (300 μM NMDA, co-application with 8 μM Glycine) to investigate the negative allosteric modulation of the test compounds.
# as §2
# The 1× bath solution will be prepared by diluting 10× bath solution without Glucose and 100× Glucose solution with water at least every 7 days. Both stock solutions have been prepared prior to the experimental start of the present study and stored at 1° C. to 9° C. (10× bath solution) or −10° C. to −30° (100× Glucose solution). The batch number(s) of the bath solution(s) used in the experiments will be documented in the raw data. When muse, the 1× bath solution will be kept at room temperature (19° C. to 30° C.). When not in use, the 1× bath solution will be stored at 1° C. to 9° C.
# After the giga-seal was formed the following Mg-free bath solution will be used: […]
# Sequence of NMDA receptor 2B (Q13224 27-1484, other chains not shown): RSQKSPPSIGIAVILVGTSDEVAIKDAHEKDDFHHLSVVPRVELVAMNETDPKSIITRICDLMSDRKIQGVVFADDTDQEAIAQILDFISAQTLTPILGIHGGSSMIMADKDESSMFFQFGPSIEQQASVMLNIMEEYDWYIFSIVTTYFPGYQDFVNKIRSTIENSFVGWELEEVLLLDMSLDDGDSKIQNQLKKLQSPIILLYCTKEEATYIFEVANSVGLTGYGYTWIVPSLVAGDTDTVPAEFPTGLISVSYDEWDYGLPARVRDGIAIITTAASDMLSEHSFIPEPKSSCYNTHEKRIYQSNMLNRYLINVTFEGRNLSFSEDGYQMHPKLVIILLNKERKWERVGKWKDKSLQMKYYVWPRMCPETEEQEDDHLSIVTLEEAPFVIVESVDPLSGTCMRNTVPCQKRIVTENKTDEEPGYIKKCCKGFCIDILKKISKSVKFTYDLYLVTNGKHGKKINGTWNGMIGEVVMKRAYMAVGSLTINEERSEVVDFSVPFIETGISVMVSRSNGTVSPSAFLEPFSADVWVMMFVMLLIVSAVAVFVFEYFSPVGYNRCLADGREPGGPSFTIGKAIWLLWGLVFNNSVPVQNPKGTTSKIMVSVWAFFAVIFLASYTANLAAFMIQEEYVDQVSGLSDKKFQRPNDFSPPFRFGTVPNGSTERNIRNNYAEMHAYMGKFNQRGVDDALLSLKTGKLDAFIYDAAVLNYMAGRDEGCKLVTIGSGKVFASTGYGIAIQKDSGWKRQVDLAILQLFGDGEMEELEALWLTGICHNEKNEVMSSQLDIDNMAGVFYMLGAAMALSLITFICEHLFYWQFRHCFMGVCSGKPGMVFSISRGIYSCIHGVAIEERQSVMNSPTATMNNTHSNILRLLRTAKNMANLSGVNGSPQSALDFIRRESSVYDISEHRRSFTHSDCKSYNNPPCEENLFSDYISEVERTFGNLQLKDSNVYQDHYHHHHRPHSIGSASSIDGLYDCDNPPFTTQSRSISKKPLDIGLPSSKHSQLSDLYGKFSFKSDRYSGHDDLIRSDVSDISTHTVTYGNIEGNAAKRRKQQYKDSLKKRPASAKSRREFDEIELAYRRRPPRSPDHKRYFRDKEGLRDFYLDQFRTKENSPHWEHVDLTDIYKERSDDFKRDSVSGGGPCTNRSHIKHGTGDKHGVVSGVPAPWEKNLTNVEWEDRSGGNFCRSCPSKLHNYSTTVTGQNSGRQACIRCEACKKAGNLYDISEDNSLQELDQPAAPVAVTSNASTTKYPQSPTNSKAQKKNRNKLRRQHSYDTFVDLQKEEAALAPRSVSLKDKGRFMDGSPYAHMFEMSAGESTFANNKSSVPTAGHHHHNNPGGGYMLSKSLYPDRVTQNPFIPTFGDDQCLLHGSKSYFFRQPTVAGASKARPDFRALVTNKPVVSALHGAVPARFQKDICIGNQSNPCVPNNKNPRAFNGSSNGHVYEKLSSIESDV
Compound,EC50 (NMDA receptor 2B) [nM],Emax (NMDA receptor 2B) [%],EC50 [1] [nM]
CC[C@]1(O)CC[C@@]2(C)C(=C[C@@H](O)[C@H]3[C@@H]4CC[C@H]([C@H](C)CCC(C)(C)O)[C@@]4(C)CC[C@@H]32)C1 [Compound U6450],66,111,–
C[C@H](CC1(O)CCC(C)(C)CC1)[C@H]1CC[C@H]2[C@@H]3[C@@H](C)C=C4C[C@@](C)(O)CC[C@]4(C)[C@H]3CC[C@]12C [Compound U6478],160,127,191
CC[C@]1(O)CC[C@@]2(C)C(=C[C@H](O)[C@H]3[C@@H]4CC[C@H]([C@H](C)CCC(C)(C)O)[C@@]4(C)CC[C@@H]32)C1 [Compound U6429],667,109,–
CC[C@]1(O)CC[C@@]2(C)[C@@H](C[C@H](O)[C@@H]3[C@@H]2CC[C@]2(C)[C@@H]([C@H](C)CCC(C)(C)O)CC[C@@H]32)C1 [Compound U6479],1420,92,> 10000
C[C@@H]1C=C2C[C@@](C)(O)CC[C@]2(C)[C@H]2CC[C@]3(C)[C@@H]([C@H](C)CC4(O)CCC(C)(C)CC4)CC[C@H]3[C@H]12 [Compound U6477],698,86,747
C[C@@H]1C=C2C[C@@](C)(O)CC[C@]2(C)[C@H]2CC[C@]3(C)[C@@H]([C@H](C)CC[C@](C)(O)C(F)(F)F)CC[C@H]3[C@H]12 [Compound U6472],22,231,–
CC[C@]1(O)CC[C@@]2(C)C(=C[C@@H](C)[C@H]3[C@@H]4CC[C@H]([C@H](C)CCC(C)(C)O)[C@@]4(C)CC[C@@H]32)C1 [Compound U6408],132,447,230
C[C@H](CC[C@](C)(O)C(F)(F)F)[C@H]1CC[C@H]2[C@@H]3[C@@H](C)C=C4C[C@@](C)(O)CC[C@]4(C)[C@H]3CC[C@]12C [Compound U6473],> 10000,47,–
CC[C@]1(O)CC[C@@]2(C)C(=C[C@@](C)(O)[C@H]3[C@@H]4CC[C@H]([C@H](C)CCC(C)(C)O)[C@@]4(C)CC[C@@H]32)C1 [Compound U6438],> 10000,15,> 10000
CC[C@]1(O)CC[C@@]2(C)C(=C[C@H](C)[C@H]3[C@@H]4CC[C@H]([C@H](C)CCC(C)(C)O)[C@@]4(C)CC[C@@H]32)C1 [Compound U6409],> 10000,71,> 10000
CC[C@]1(O)CC[C@@]2(C)C(=C[C@](C)(O)[C@H]3[C@@H]4CC[C@H]([C@H](C)CCC(C)(C)O)[C@@]4(C)CC[C@@H]32)C1 [Compound U6437],741,213,1620
CC[C@]1(O)CC[C@@]2(C)C(=CC(=O)[C@H]3C4CC[C@H]([C@H](C)CCC(C)(C)O)[C@@]4(C)CC[C@@H]32)C1 (some centres unmarked) [Compound U6461],> 10000,53,> 10000
CC[C@]1(O)CC[C@@]2(C)[C@@H](CC(=O)[C@@H]3[C@@H]2CC[C@]2(C)[C@@H]([C@H](C)CCC(C)(C)O)CC[C@@H]32)C1 [Compound U6410],> 10000,44,> 10000
